Literature values in patent EP1060743A1, “Oral cisapride dosage forms with an extended duration” (DEVELOPMENT CENTER FOR BIOTECHNOLOGY, priority 1999, dated 2000).
Like-named read-outs stand apart in the source and are kept apart here.

Question: For `COc1cc(N)c(Cl)cc1C(=O)NC1CCN(CCCOc2ccc(F)cc2)CC1OC` (racemic) [cisapride, (±)-cis-4-amino-5-chloro-N-1-[3-(4-fluorophenoxy)propyl]-3-methoxy-4-piperidine-2-methoxybenzamide monohydrate], which solubility of cisapride (pH condition near neutral (pH of intestinal fluid)) is on record?
Answer: almost insoluble

Question: And the solubility of cisapride (under acidic conditions)?
Answer: better solubility
